Experimental data: ChEMBL document CHEMBL4507274 (2021)
Activity calls are given as the source filed them. No cut-off for these calls is given here.

Columns and labels:
Rattus norvegicus = species: Rattus norvegicus; assay: Rsk1 (r) Upstate kinase activity assay; details: Compound concentration 10.0 uM
[1] = molecular target: 5-hydroxytryptamine receptor 1A (Homo sapiens) (UniProt P08908); details: Compound concentration 10.0 uM
[2] = Leukemia […] cell line MDS Pharma Services Proliferation Assay; assay type: functional, cell-based, Homo sapiens
[3] = molecular target: Mitogen-activated protein kinase 10 (Homo sapiens) (UniProt P53779); assay: JNK3 (h) Upstate kinase activity assay; details: Compound concentration 10.0 uM
[4] = molecular target: Tyrosine-protein kinase ABL2 (Homo sapiens) (UniProt P42684); assay: Arg (h) Upstate kinase activity assay; details: Compound concentration 10.0 uM
[5] = molecular target: BDNF/NT-3 growth factors receptor (Homo sapiens) (UniProt Q16620); assay: TrkB (h) Upstate kinase activity assay; details: Compound concentration 10.0 uM
Sequence of BDNF/NT-3 growth factors receptor (Homo sapiens) (Q16620 32-822 limits assumed): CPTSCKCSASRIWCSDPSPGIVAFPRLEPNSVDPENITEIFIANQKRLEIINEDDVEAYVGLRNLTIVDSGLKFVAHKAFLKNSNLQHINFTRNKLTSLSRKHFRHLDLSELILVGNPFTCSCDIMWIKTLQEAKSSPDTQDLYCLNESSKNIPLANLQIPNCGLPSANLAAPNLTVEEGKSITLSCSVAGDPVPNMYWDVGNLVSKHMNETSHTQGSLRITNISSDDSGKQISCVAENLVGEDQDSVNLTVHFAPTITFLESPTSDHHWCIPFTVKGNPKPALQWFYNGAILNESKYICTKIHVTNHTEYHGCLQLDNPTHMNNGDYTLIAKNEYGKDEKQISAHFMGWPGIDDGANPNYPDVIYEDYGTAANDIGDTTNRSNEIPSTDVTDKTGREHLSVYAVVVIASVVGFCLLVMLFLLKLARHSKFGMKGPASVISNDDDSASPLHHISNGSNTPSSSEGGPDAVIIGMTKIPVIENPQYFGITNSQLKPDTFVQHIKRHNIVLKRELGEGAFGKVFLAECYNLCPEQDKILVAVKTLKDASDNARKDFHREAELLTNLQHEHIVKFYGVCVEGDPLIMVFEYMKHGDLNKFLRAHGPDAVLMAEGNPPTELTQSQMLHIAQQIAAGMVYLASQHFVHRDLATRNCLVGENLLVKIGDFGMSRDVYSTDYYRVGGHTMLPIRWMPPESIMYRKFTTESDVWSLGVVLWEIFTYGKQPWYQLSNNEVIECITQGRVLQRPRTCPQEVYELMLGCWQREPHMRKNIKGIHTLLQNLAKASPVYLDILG

[6] = molecular target: Tyrosine-protein kinase Blk (Mus musculus) (UniProt P16277); assay: Blk (m) Upstate kinase activity assay; details: Compound concentration 10.0 uM
Sequence of Tyrosine-protein kinase Blk (Mus musculus) (P16277 whole entry, looked up): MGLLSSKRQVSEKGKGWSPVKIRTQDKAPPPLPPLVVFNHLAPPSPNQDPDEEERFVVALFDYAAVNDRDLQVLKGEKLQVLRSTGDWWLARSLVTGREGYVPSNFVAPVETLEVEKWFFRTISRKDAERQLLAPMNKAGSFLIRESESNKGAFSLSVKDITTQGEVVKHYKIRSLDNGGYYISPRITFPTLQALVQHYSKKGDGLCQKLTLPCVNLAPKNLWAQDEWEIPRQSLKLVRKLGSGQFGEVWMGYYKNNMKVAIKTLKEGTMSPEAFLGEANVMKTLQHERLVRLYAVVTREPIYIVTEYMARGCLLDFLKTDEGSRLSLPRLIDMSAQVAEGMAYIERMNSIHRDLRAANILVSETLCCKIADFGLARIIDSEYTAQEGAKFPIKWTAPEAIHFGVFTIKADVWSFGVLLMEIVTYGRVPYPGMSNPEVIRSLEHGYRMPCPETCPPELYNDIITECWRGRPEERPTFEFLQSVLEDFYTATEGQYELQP

[7] = molecular target: Protein kinase C beta type (Homo sapiens) (UniProt P05771); assay: PKCBI (h) Upstate kinase activity assay; details: Compound concentration 10.0 uM
[8] = molecular target: Fibroblast growth factor receptor 3 (Homo sapiens) (UniProt P22607); assay: FGFR3 (h) Upstate kinase activity assay; details: Compound concentration 10.0 uM
Sequence of Fibroblast growth factor receptor 3 (Homo sapiens) (P22607 23-806 limits assumed): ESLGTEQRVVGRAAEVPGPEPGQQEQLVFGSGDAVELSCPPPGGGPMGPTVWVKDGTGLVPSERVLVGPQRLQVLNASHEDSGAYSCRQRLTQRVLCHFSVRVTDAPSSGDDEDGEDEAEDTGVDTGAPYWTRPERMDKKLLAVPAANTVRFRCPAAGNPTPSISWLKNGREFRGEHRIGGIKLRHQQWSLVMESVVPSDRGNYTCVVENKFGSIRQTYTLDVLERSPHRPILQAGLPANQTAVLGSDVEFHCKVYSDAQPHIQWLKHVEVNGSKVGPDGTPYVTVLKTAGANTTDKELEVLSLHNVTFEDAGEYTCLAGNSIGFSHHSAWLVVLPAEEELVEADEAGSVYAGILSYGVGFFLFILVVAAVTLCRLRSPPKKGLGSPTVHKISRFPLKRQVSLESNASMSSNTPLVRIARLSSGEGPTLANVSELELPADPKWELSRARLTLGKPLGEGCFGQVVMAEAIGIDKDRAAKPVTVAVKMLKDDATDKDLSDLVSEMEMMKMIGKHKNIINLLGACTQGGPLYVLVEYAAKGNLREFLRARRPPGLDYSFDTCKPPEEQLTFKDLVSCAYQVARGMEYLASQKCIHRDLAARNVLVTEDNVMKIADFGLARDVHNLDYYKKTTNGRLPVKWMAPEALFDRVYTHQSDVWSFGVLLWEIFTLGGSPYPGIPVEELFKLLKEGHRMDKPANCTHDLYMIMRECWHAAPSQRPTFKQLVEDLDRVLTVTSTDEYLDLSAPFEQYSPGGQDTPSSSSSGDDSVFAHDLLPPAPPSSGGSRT

PC-3 = assay: Prostate PC-3 cell line MDS Pharma Services Proliferation Assay; assay type: functional, cell-based, Homo sapiens
[9] = molecular target: Ephrin type-A receptor 2 (Homo sapiens) (UniProt P29317); assay: EphA2 (h) Upstate kinase activity assay; details: Compound concentration 10.0 uM
Sequence of Ephrin type-A receptor 2 (Homo sapiens) (P29317 whole entry): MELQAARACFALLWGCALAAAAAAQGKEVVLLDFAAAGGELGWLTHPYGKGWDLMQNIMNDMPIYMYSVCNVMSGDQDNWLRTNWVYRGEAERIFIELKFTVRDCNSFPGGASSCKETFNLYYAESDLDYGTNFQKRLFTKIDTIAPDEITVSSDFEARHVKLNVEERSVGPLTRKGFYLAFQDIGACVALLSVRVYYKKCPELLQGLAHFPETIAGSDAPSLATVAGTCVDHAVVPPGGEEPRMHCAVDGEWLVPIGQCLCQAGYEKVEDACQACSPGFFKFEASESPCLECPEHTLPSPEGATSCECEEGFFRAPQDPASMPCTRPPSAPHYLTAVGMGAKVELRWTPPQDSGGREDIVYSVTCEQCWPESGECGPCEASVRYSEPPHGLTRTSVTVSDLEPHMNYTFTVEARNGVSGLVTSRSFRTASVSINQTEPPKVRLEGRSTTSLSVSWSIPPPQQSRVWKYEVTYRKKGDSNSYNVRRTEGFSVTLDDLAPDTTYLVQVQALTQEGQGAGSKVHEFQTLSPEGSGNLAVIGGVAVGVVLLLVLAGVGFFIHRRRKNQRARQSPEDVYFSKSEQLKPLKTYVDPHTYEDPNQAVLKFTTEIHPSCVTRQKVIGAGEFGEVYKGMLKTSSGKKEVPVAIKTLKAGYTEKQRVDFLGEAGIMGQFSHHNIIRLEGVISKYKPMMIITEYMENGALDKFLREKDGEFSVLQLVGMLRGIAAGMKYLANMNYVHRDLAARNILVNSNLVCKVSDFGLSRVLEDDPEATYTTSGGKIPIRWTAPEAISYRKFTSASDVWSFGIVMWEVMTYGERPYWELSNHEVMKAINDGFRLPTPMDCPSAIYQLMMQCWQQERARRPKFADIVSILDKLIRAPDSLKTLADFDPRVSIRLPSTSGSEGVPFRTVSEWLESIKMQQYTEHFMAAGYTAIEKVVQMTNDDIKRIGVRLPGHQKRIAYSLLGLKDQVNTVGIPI

[10] = molecular target: Sigma non-opioid intracellular receptor 1 (Homo sapiens, UniProt Q99720); assay: GPCRScan assay: inhibition of Sigma 1; parameters: radioligand conc. used [nm] 4.0 – 5.0, parental cells HEKT
[11] = molecular target: Tyrosine-protein kinase Lyn (Mus musculus) (UniProt P25911); assay: Lyn (m) Upstate kinase activity assay; details: Compound concentration 10.0 uM
[12] = molecular target: T1, Ephrin type-B receptor 4 (Homo sapiens) (UniProt P54760); assay: EphB4 (h) Upstate kinase activity assay; details: Compound concentration 10.0 uM
T1 sequence (whole entry): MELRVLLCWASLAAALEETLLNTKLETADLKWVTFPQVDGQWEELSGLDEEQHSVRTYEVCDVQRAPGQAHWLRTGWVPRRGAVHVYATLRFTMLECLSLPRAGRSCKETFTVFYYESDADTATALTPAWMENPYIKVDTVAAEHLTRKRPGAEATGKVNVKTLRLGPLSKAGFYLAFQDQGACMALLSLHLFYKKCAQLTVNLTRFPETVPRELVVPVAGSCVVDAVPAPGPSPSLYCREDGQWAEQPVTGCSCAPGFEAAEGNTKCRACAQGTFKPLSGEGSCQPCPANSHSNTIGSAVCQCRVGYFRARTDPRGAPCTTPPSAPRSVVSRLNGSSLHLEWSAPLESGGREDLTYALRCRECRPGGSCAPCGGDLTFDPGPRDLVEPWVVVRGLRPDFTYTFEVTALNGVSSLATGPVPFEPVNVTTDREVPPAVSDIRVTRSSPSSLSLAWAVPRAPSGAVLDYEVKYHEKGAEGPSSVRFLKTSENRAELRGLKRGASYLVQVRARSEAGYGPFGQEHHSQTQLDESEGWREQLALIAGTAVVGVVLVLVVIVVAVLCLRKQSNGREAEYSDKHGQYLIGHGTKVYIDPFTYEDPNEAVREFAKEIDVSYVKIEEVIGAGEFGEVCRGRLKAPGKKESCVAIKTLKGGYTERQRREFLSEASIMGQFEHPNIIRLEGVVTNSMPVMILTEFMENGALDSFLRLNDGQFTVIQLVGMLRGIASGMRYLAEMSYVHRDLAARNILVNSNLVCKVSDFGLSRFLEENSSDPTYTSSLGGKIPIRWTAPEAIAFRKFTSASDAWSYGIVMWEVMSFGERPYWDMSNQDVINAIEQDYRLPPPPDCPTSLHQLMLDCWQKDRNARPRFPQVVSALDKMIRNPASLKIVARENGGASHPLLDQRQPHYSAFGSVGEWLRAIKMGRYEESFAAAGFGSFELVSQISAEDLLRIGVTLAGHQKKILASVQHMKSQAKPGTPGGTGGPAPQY

[13] = molecular target: Tyrosine-protein kinase ABL2 (Mus musculus) (UniProt Q4JIM5); assay: Arg (m) Upstate kinase activity assay; details: Compound concentration 10.0 uM
[14] = molecular target: T2, Protein kinase C epsilon type (Homo sapiens) (UniProt Q02156); assay: PKCepsilon (h) Upstate kinase activity assay; details: Compound concentration 10.0 uM
T2 sequence (whole entry): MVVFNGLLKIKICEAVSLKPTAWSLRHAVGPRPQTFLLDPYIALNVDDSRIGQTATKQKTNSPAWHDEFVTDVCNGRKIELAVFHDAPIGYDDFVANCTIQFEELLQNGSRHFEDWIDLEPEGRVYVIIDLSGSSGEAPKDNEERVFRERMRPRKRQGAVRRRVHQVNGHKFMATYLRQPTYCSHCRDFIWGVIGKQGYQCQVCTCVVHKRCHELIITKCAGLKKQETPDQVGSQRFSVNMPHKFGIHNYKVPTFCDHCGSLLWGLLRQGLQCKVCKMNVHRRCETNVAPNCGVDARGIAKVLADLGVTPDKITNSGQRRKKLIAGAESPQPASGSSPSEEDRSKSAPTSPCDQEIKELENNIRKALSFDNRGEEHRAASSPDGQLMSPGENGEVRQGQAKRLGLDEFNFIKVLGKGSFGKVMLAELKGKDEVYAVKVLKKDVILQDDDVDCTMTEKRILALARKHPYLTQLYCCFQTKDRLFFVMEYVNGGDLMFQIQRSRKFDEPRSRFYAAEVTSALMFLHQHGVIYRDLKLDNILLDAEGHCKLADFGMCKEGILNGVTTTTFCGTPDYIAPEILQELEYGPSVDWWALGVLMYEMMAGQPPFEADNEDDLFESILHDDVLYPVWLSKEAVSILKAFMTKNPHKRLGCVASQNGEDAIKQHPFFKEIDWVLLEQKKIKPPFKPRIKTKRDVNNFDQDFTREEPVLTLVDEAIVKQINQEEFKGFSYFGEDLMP

[15] = Mechanistic tissue assay (arteria saphena rabbit); assay type: tissue-based, Oryctolagus cuniculus, Saphenous artery
[16] = molecular target: Rho-associated protein kinase 2 (Homo sapiens, UniProt O75116); assay: Biochemical ROCK2 assay
Sequence of Rho-associated protein kinase 2 (O75116 whole entry): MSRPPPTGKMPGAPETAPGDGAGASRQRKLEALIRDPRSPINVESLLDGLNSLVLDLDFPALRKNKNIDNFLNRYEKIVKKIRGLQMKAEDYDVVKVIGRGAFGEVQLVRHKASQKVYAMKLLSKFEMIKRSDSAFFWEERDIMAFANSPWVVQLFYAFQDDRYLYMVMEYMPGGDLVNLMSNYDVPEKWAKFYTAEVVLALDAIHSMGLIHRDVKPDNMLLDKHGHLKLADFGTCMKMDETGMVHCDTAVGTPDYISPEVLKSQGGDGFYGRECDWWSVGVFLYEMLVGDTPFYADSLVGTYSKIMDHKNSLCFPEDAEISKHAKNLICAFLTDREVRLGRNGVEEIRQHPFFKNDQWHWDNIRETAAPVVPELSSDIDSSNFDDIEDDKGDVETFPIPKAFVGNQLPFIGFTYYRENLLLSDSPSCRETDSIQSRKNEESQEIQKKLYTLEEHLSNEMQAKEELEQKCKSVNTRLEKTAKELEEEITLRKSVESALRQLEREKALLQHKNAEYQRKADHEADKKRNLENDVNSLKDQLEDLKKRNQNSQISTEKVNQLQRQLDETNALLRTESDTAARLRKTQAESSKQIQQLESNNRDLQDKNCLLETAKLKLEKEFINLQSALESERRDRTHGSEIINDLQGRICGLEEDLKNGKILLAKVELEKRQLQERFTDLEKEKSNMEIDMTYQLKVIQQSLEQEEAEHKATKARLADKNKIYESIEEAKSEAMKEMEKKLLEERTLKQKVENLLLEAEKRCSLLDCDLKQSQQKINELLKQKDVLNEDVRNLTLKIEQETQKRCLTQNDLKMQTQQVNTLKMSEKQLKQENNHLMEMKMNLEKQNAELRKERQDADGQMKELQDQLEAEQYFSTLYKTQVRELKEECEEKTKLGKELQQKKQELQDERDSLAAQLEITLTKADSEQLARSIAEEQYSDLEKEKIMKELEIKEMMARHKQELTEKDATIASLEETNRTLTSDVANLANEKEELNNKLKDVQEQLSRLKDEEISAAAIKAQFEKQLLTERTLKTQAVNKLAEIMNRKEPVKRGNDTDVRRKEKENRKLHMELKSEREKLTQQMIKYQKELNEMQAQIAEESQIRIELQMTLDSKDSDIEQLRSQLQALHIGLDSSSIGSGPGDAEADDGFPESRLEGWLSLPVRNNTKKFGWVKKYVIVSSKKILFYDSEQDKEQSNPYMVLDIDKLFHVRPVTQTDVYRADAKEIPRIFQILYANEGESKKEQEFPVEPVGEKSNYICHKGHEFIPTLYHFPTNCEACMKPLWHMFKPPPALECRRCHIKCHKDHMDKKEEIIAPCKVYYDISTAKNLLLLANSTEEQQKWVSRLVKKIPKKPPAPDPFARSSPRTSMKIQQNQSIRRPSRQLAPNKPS

Sequence of 5-hydroxytryptamine receptor 1A (Homo sapiens) (P08908 whole entry): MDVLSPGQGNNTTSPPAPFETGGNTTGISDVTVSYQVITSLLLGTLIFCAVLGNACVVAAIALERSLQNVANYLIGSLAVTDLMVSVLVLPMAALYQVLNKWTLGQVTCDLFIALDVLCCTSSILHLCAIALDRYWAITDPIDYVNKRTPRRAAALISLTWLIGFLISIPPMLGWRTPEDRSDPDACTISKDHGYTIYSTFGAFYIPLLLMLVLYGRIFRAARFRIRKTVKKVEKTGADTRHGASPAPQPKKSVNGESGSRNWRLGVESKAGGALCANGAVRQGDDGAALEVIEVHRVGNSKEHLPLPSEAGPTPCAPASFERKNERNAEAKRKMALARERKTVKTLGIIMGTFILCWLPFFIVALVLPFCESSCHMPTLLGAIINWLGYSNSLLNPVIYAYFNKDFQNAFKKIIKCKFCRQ

SMILES: Cc1c[nH]c2nccc(Oc3c(F)cc(Nc4cc(Cl)nc(N)n4)cc3F)c12 [BAY-549]
- inhibition (Rattus norvegicus): 79%
- inhibition [1]: 11.7%
- IC50 ([2]; Homo sapiens, Leukemia 1-IL-60): 21 µM
- TGI ([2]; Homo sapiens, Leukemia 1-IL-60): > 100 µM
- CC50 ([2]; Homo sapiens, Leukemia 1-IL-60, read-out: LC50 (the source's name)): > 100 µM
- Mean % growth (n = 2) for 100.0 µM probe concentration ([2]; ± SEM 2 % growth): 35%
- Mean % growth (n = 2) for 0.01 µM probe concentration ([2]; ± SEM 4 % growth): 98%
- Mean % growth (n = 2) for 0.1 µM probe concentration ([2]; ± SEM 4 % growth): 88%
- Mean % growth (n = 2) for 1.0 µM probe concentration ([2]; ± SEM 5 % growth): 89%
- Mean % growth (n = 2) for 10.0 µM probe concentration ([2]; ± SEM 6 % growth): 53%
- inhibition [3]: 8%
- inhibition [4]: 37%
- inhibition [5]: 84%
- inhibition [6]: 16%
- inhibition [7]: 8%
- inhibition [8]: 12%
- IC50 (PC-3; Homo sapiens, PC-3): 9.4 µM
- TGI (PC-3; Homo sapiens, PC-3): > 100 µM
- CC50 (PC-3; Homo sapiens, PC-3, read-out: LC50 (the source's name)): > 100 µM
- Mean % growth (n = 2) for 10.0 µM probe concentration (PC-3; ± SEM 1 % growth): 48%
- Mean % growth (n = 2) for 0.01 µM probe concentration (PC-3; ± SEM 2 % growth): 97%
- Mean % growth (n = 2) for 1.0 µM probe concentration (PC-3; ± SEM 3 % growth): 58%
- Mean % growth (n = 2) for 100.0 µM probe concentration (PC-3; ± SEM 3 % growth): 29%
- Mean % growth (n = 2) for 0.1 µM probe concentration (PC-3; ± SEM 5 % growth): 102%
- inhibition [9]: 4%
- Ki [10]: 6.77 µM
- inhibition [11]: 4%
- inhibition [12]: -9%
- inhibition [13]: 36%
- inhibition [14]: 28%
- IC50 [15]: 0.065 µM (active)

SMILES: Cn1cc(Cl)c2c(Oc3c(F)cc(Nc4cc(Cl)nc(N)n4)cc3F)ccnc21 [BAY-4900]
- IC50 [16]: 17.7 µM (not active)
